Measurements reported in patent publication US6623933B1 (priority 1999, dated 2003).

Tests used:
[1] = tested on: primary cultures of rat hippocampal neurons; assay: NMDA-induced increase in [Ca2+]i, Fluo-3 AM; format: cell-based; settings: 5 μM NMDA; steroid 100 μM (3α5β 50 μM)
Method: (§1) Principally neuronal cultures were prepared from hippocampal tissue of fetal Sprague-Dawley rats on day 18 of embryonic development, as previously described (Brewer et al., Brain Research 494: 65-74 (1989)). Briefly, hippocampal cells were dissociated by trituration in Ca^2+/Mg^2+-free Hank's basic salt solution (Gibco) supplemented with 4.2 mM bicarbonate, 1 mM sodium pyruvate, 20 mM HEPES, 3 mg/ml bovine serum albumin (BSA). Dissociated cells were then pelleted by centrifugation (500×g, 4 min). […] Cells were then plated onto poly-L-lysine-coated 24-well culture dishes (Nunclon) at a density of 15,000 cell/cm^2 and maintained in a humidified atmosphere containing 5% CO2/95% air at 37° C. After 48 h, nonneuronal cell division was inhibited by a 48 h exposure to 1 μM cytosine arabinoside. Cultures were subsequently maintained in serum-free DMEM plus defined components and were used for experiments 16 to 24 days after plating.
DMSO was also added to controls to maintain a constant final DMSO concentration of […].
(§2) All data are expressed as mean±standard error of the mean. Statistical significance was evaluated using 95% confidence limits unless otherwise noted.

[2] = tested on: primary cultures of rat hippocampal neurons; assay: NMDA-induced neuronal death, trypan blue exclusion; format: cell-based; settings: acute 30 μM NMDA; steroid 100 μM (3α5β 50 μM)
Method: as §1
Steroids were dissolved in DMSO (0.5% final concentration), and all treatment media contained 0.5% DMSO. […] Following exposure, cultures were washed 3 times with medium from sister cultures (conditioned medium). After the final wash, steroid or vehicle was reintroduced. Drugs were added to cultures in 25 μl of conditioned medium to yield a final volume of 0.25 ml per well. Except where otherwise noted, final steroid concentration was 100 μM.
The ability of neurons to exclude trypan blue was used to quantitate cell viability (Dawson et al., Proc Natl Acad Sci USA 88: 6368-6371 (1991)). […] Cultures were then fixed with 4% paraformaldehyde in PBS for 30 min, at whichtime the fixative was replaced with PBS. The number of stained and unstained neurons were counted in 4 high-power fields per culture well, using an inverted phase contrast microscope under both bright field and phase contrast settings. Experiments were performed in triplicate, and all assessments were made with the experimenter blind to the treatment of each culture well. Percent cell death is expressed as follows: (number of trypan blue stained neurons)/(total number of neurons)×100%.
as §2

[3] = molecular target: T1, NR1100+NR2A NMDA receptor (Rattus norvegicus, UniProt P35439+Q00959); assay: NMDA-induced current (INMDA), Xenopus oocytes, Example 2; format: cell-based; settings: 100 μM NMDA, 100 μM steroid
T1 construct: expressed in transfected cells; host or cells: Xenopus oocytes co-injected with NR1100 and NR2A cRNA
Method: NR1100 (NR1G) and NR2A clones were kindly provided by Dr. R. S. Zukin (Albert Einstein College of Medicine, New York, N.Y.) and Dr. S. Nakanishi (Faculty of Medicine, Kyoto University, Kyoto, Japan), respectively. mRNA was prepared through in vitro transcription of NR1100 and NR2A cDNAs using the mMessage mMachine kit (Ambion, Tex.). On the day following isolation, batches of 20-40 selected Xenopus oocytes were injected with 50 nl of prepared RNA solution (0.5 ng NR1100 and 5 ng of NR2A mRNA/oocyte). Oocytes were maintained in glass petri dishes containing Barth's solution (84 mM NaCl, 1 mM KCl, 2.4 mM NaHCO3, 0.82 mM MgSO4, 0.41 mM CaCl2, 0.33 mM Ca(NO3)2, 2.5 mM pyruvate, 0.1 mg/ml gentamycin, 7.5 mM Tris/HCl, pH 7.4) in an incubator at 18° C. Oocytes were used for electrophysiological experiments 4-10 days after injection.
Recordings from oocytes were obtained using the two electrode voltage-clamp mode with an Axoclamp-2A amplifier (Axon Instruments). The resistance of microelectrodes, pulled from glass capillaries and filled with 3 M KCl solution, was 2.5-3.5 M. Membrane potential was clamped at −70 mV. Drugs were applied by a gravity-driven external perfusion system. Drug application and data acquisition were carried out with custom-written software implemented in the SuperScopeII programming language (GW Instruments, Somerville, Mass.).
The degree of modulation of NMDA-induced Ca^2+ influx, cell death, and currents is expressed as the percent change, defined as (I′/I−1)×100%, where I and I′ are the NMDA-induced responses in the absence and presence of modulator, respectively. All data are expressed as mean±standard error of the mean. Statistical significance was evaluated using 95% confidence limits unless otherwise noted.

[4] = tested on: middle cerebral artery occlusion in rats; settings: Weaver et al. 1997; cited from earlier work
[5] = tested on: primary cultures of rat hippocampal neurons; settings: Weaver et al. 1997; cited from earlier work

T1 sequence (Q00959 23-1464, other chains not shown): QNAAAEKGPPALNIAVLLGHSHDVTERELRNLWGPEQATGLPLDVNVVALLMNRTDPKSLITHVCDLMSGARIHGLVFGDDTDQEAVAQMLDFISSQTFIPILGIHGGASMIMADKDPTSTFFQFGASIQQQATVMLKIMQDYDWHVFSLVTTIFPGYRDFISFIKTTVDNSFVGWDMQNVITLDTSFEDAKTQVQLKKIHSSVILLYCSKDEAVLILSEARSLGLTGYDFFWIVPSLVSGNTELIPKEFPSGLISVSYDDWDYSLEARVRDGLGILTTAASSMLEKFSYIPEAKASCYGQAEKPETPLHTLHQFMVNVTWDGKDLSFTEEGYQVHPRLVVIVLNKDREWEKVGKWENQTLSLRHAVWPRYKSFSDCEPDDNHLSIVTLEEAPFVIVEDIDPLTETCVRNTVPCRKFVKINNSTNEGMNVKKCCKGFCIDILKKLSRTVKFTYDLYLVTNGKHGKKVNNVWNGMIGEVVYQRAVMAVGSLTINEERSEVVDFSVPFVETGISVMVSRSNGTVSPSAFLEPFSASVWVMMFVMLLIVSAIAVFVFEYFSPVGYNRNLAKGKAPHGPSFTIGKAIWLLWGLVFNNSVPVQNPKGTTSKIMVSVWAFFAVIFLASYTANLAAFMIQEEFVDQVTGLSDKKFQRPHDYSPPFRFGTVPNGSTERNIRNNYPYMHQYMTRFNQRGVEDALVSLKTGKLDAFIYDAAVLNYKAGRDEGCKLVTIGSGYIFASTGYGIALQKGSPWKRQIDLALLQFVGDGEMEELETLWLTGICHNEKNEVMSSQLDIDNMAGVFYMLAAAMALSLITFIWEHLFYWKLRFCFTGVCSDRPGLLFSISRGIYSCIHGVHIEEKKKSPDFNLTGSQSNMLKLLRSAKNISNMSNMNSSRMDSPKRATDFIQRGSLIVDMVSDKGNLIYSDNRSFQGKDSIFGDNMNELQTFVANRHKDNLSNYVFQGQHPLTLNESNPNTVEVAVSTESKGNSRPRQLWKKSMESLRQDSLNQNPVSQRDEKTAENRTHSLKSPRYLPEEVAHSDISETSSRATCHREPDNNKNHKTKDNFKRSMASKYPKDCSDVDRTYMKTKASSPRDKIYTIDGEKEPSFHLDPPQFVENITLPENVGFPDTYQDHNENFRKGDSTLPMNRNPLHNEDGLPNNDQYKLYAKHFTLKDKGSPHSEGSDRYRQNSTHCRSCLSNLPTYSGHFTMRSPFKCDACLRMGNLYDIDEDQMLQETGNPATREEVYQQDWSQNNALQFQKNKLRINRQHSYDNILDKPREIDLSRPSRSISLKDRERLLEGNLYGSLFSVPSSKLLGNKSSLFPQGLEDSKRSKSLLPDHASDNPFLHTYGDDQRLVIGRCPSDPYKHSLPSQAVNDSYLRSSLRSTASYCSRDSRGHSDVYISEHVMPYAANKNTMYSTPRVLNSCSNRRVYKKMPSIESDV

## pregnanolone hemisuccinate [3α5βHS]
[1]
  reduction of NMDA-induced rise in [Ca2+]i: approximately 40%
[2]
  inhibition of NMDA-induced neuronal death: 54±3%
[3]
  inhibition of INMDA: about equally effective in inhibiting INMDA
[4]
  inhibition of neuronal death after middle cerebral artery occlusion: effective at inhibiting the neuronal death

## C[C@]12CC[C@@H]3c4ccc(O)cc4CC[C@H]3[C@@H]1CC[C@@H]2O [17β-estradiol]
[5]
  neuroprotection against NMDA-induced neuronal death: neuroprotective against NMDA-induced neuronal death
